Assay results from paper PMC8776995 (Frontiers in Chemistry, 2022).
Several values for one entry are separate records, joined by “and”; a condition that tells them apart may be missing. Equal entries are not always repeated.

How the values were obtained:
[1] = system: PC-9 cells; assay: Hoechst 33342 staining for cell apoptosis; assay type: cell-based, human; conditions: PC-9, various concentrations, 48 h, vs 0.1% DMSO
Procedure: To further verify the impact of compounds e4 and e12 on apoptosis of NSCLC cells, PC-9 cells were treated with either compound e4 or e12 at various concentrations for 48 h and then stained with dye Hoechst 33342.
PC-9 cells were seeded in 96-well plates, then treated with 0.1% DMSO (as control) or various concentrations of compound e4 or e12 for 48 h. Culture medium from the cells was removed and replaced with medium containing dye Hoechst 33342. Cells were incubated at 37°C for 5–15 min, washed with PBS twice, and then observed and imaged under the Nikon Ti-U microscope.

[2] = system: AKT phosphorylation (S473) in H460 cells; assay: Western blot, p-AKT/AKT in H460; conditions: for p-AKT/AKT: band density ratio; for p-AKT/AKT relative to DMSO: ratio normalised to DMSO
Procedure: (§1) We also performed western blot analysis to evaluate the impact of e4 and e12 on EGFR signaling in PC-9 and H460 cells.
(§2) H460 cells were seeded in six-well plates with serum-free medium overnight, and then treated complete medium containing 0.1% DMSO, various concentrations (0.1, 1 and 10 μM) of either compound e4 or e12 for 2 h, respectively. […] Then the H460 cells were treated with complete medium containing EGF (10 ng/ml) for 5 min. Then the cells were harvested and washed with PBS, centrifuged, resuspended in 100–200 μl of RIPA lysis buffer containing Protease and Phosphatase Inhibitor Cocktail (1X), and then centrifuged for 5 min at 12,000 rpm at 4°C. The supernatant was used for protein analysis. […] Then the membrane was washed 5 min (X3) and incubated at 1:3,000 dilution of anti-rabbit secondary antibodies or 1:1,000 dilution of anti-mouse secondary antibodies for 1 h at RT. After washing with TBST 5 min (X3), protein bands were developed by chemiluminescence. The protein levels were quantified by the gray values of the bands in the resulting images by ImageJ, and the control group was used as the standard. […] The PC-9 cells were harvested and analyzed as above.

[3] = system: H460 cells; assay: Flow cytometry detection for cell cycle, H460; assay type: cell-based, human; conditions: for G0/G1 / G2/M / S: single experiments (20200711, 20200810, 20200812)
Procedure: To investigate the effects of compounds e4 and e12 on various phases of the cell cycle, PC-9 cells were treated with compound e4 or e12 of various concentrations for 24 h, and H460 cells were treated with compound e4 or e12 of various concentrations for 12 h.
PC-9 or H460 (2 × 10^5–3 × 10^5/well) cells were seeded in six-well plates for 24 h, and then treated with 0.1% DMSO (as control), various concentrations of either compound e4 or e12 for 24 h (PC-9) or 12 h (H460), respectively. The treated cells were harvested, washed with PBS, and then stained using the cell-cycle staining kit according to the manufacturer’s manual. The distribution of cell-cycle phases with different DNA contents was determined by flow cytometry (BD LSRFortessa™ Flow Cytometer) and analyzed using ModFit LT software.

[4] = molecular target: wild-type EGFR (Homo sapiens, UniProt P00533); assay: EGFR kinase assay (ELISA); conditions: for A450: raw ELISA absorbance
Chain of wild-type EGFR (P00533 25-1210): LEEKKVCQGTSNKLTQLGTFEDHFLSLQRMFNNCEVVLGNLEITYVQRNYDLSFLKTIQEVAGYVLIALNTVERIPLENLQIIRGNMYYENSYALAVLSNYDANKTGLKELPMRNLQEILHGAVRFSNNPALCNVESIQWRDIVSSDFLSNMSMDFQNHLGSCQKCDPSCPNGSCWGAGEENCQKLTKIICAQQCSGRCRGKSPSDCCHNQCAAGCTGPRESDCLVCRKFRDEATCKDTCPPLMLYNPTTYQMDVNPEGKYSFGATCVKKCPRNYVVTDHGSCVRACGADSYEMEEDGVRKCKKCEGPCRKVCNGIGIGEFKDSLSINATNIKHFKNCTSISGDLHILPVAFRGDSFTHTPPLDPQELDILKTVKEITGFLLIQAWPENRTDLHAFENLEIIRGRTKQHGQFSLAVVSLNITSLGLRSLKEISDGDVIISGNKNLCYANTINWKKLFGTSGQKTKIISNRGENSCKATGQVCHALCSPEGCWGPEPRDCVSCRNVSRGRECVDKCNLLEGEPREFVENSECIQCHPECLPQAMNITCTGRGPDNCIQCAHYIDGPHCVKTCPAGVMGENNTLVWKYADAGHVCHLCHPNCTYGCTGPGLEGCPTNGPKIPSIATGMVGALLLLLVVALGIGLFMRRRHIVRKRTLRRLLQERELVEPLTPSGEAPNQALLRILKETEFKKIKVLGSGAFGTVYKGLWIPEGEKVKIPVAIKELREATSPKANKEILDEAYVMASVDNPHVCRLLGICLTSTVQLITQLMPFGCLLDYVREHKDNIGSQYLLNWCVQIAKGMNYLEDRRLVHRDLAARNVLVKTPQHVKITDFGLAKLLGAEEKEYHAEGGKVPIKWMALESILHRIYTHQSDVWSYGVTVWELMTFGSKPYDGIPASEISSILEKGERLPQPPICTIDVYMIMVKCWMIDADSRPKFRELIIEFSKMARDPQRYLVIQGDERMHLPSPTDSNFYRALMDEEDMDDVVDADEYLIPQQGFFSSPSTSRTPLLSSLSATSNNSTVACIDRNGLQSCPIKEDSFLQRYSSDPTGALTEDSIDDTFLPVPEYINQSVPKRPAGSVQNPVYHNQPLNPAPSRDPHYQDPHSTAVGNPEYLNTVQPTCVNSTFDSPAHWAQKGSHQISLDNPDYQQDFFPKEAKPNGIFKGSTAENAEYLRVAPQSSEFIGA
Procedure: The kinase enzyme of EGFR was purchased from Carna Bioscience (Kobe, Japan). A total of 10 ng/ml anti phosphotyrosine (PY713) antibody (abcam, Cambridge Science Park, United Kingdom) was precoated in 96-well ELISA plates. […] Then, a total of 3 μmol/L ATP was added and the reaction was continued for 2 h. […] After incubation, the wells were washed with PBS and then incubated with horseradish peroxidase (HRP)-conjugated streptavidin. The wells were visualized using 3,3′,5,5′-tetramethylbenzidine (TMB), and chromogenic reaction was ended with 2 mol/L H2SO4, the absorbance was read with a multimode plate reader (PerkinElmer, United States) at 450 nm.

[5] = system: PC-9 cells; assay: Annexin V/PI flow cytometry for cell apoptosis, PC-9; assay type: cell-based, human; set-up: key to Apoptosis (sum of Q2 and Q3) / Apoptosis, Average: % apoptotic cells (Annexin V/PI flow cytometry); conditions: for Apoptosis, Average / Lymphocytes/Q2: FITC-A+ , PI-A+ Freq. of Parent / Lymphocytes/Q3: FITC-A+ , PI-A- Freq. of Parent / Apoptosis (sum of Q2 and Q3): PC-9, 48h; for Apoptosis, Average: average of three repeats; for Lymphocytes/Q2: FITC-A+ , PI-A+ Freq. of Parent / Lymphocytes/Q3: FITC-A+ , PI-A- Freq. of Parent: single runs; for Apoptosis (sum of Q2 and Q3): single repeats (Repeat 1-3)
Procedure: To establish whether the antiproliferative efficacy is associated with apoptosis, PC-9 and H460 cells were treated with compound e4 or e12 of various concentrations (4, 8 and 12 μM) for 48 h, and then assessed with flow cytometry.
Cell-apoptosis analysis was carried out by flow cytometry using the Annexin V/PI apoptosis kit according to the manufacturer’s manual. Briefly, PC-9 or H460 (3 × 10^4–5 × 10^4/well) cells were seeded in 12-well plates for 24 h, and then treated with 0.1% DMSO (as control) or various concentrations of compound e4 or e12 for 48 h, respectively. Cells were harvested, washed with PBS, and then incubated with 100ul of 1X Annexin V binding buffer containing 1 μl PI and 1 μl FITC Annexin V for 15 min at RT in the dark. 200 µl of 1X binding buffer were added to each tube for flow cytometry analysis (BD LSRFortessa™ Flow Cytometer). The percentages of apoptotic cells were analyzed using FlowJo soft.

[6] = system: PC-9 cells; assay: CCK-8 antiproliferation assay, PC-9; conditions: for Inhibitory efficacy: single repeats (Repeat 1-3), given as fraction
[7] = system: EGFR phosphorylation (Tyr1068) in H460 cells; assay: Western blot, p-EGFR/EGFR in H460; conditions: for p-EGFR/EGFR: band density ratio; for p-EGFR/EGFR relative to DMSO: ratio normalised to DMSO
Procedure: as §1, §2

inhibition at 100 fM ([4]; concentration 0.0001 nM (reference for normalisation), one value per replicate column): 0% | Inhibition ([4]; concentration 0.03 nM, one value per replicate column, 3e-05 µM): 0.3205 and 0.9868 | inhibition at 0.0003 µM ([4]; concentration 0.3 nM, one value per replicate column): 8.65% | Inhibition ([4]; concentration 0.3 nM, one value per replicate column, 0.0003 µM): 6.25 | inhibition at 0.003 µM ([4]; concentration 3 nM, one value per replicate column): 8.97% | Inhibition ([4]; concentration 3 nM, one value per replicate column, 0.003 µM): 8.553 | inhibition at 0.03 µM ([4]; concentration 30 nM, one value per replicate column): 9.62% | Inhibition ([4]; concentration 30 nM, one value per replicate column, 0.03 µM): 10.8553 | inhibition at 0.3 µM ([4]; concentration 300 nM, one value per replicate column): 10.3% | Inhibition ([4]; concentration 300 nM, one value per replicate column, 0.3 µM): 11.1842 | inhibition at 3 µM ([4]; concentration 3000 nM, one value per replicate column): 13.8% | Inhibition ([4]; concentration 3000 nM, one value per replicate column, 3 µM): 18.75 | inhibition at 30 µM ([4]; concentration 30000 nM, one value per replicate column): 70.2% | Inhibition ([4]; concentration 30000 nM, one value per replicate column, 30 µM): 70.7237 | A450 ([4]; concentration 0.0001 nM): 0.554 and 0.551 | A450 ([4]; concentration 0.03 nM): 0.553 and 0.548 | A450 ([4]; concentration 0.3 nM): 0.527 and 0.532 | A450 ([4]; concentration 3 nM): 0.526 and 0.525 | A450 ([4]; concentration 30 nM): 0.524 and 0.518 | A450 ([4]; concentration 300 nM): 0.522 and 0.517 | A450 ([4]; concentration 3000 nM): 0.511 and 0.494 | A450 ([4]; concentration 30000 nM): 0.335 and 0.336 | IC50 ([4]; read-out: IC50 (μM) EGFR, ELISA, 3 μmol/L ATP): 13 µM | IC50 ([6]; Homo sapiens, PC-9, 48 h, read-out: IC50 (μM) PC-9): 4.38 ± 0.12 µM
Structure (SMILES): COCCOc1cc2ncnc(Nc3cccc(-c4cn(Cc5cc(Br)cc(Br)c5)nn4)c3)c2cc1OCCOC [e4, [6,7-Bis-(2-methoxy-ethoxy)-quinazolin-4-yl]-{3-[1-(3,5-dibromo-benzyl)-1H-[1,2,3]triazol-4-yl]-phenyl}-amine]
apoptotic morphology, Hoechst 33342 staining [1]: exhibited features typical of apoptosis | p-AKT/AKT ([2]; H460, 0.1 uM): 1.245 | p-AKT/AKT relative to DMSO ([2]; H460, 0.1 uM): 1.252 | p-AKT/AKT ([2]; H460, 1 uM): 0.733 | p-AKT/AKT relative to DMSO ([2]; H460, 1 uM): 0.7369 | p-AKT/AKT ([2]; H460, 10 uM): 1.039 | p-AKT/AKT relative to DMSO ([2]; H460, 10 uM): 1.044 | phosphorylation of AKT (western blot) ([2]; H460, especially at 10 μM): suppressed | G0/G1 ([3]; H460, 4uM): 42.32% and 41.29% and 53.43% | G2/M ([3]; H460, 4uM): 16.95% and 17.5% and 12.27% | S ([3]; H460, 4uM): 40.73% and 41.21% and 34.3% | G0/G1 ([3]; H460, 8uM): 48.11% and 44.75% and 59.66% | G2/M ([3]; H460, 8uM): 16.79% and 18.81% and 11.77% | S ([3]; H460, 8uM): 35.11% and 36.45% and 28.56% | G0/G1 ([3]; H460, 12uM): 48.29% and 43.3% and 54.65% | G2/M ([3]; H460, 12uM): 17.85% and 18.86% and 13.72% | S ([3]; H460, 12uM): 33.86% and 38.02% and 31.63% | percentage of cells in the G0/G1 phase ([3]; H460, various concentrations, 12 h): induced higher percentages | cell apoptosis (flow cytometry) ([5]; PC-9, 4, 8 and 12 μM, 48 h): significant cell apoptosis | Apoptosis, Average ([5]; 4uM): 10.24 | Lymphocytes/Q2: FITC-A+ , PI-A+ Freq. of Parent ([5]; 4uM): 4.32% and 13.0% and 11.9% | Lymphocytes/Q3: FITC-A+ , PI-A- Freq. of Parent ([5]; 4uM): 0.25% and 0.69% and 0.56% | Apoptosis, Average ([5]; 8uM): 14.45 | Apoptosis (sum of Q2 and Q3) ([5]; 8uM): 10.39 and 18.02 and 14.93 | Lymphocytes/Q2: FITC-A+ , PI-A+ Freq. of Parent ([5]; 8uM): 9.22% and 16.0% and 13.2% | Lymphocytes/Q3: FITC-A+ , PI-A- Freq. of Parent ([5]; 8uM): 1.17% and 2.02% and 1.73% | Apoptosis, Average ([5]; 12uM): 35.74 | Apoptosis (sum of Q2 and Q3) ([5]; 12uM): 33.11 and 39.69 and 34.42 | Lymphocytes/Q2: FITC-A+ , PI-A+ Freq. of Parent ([5]; 12uM): 28.20% and 34.7% and 29.1% | Lymphocytes/Q3: FITC-A+ , PI-A- Freq. of Parent ([5]; 12uM): 4.91% and 4.99% and 5.32% | inhibition at 1 µM ([6]; Homo sapiens, PC-9, read-out: Inhibitory efficacy, PC-9, 1uM, single repeats (Repeat 1-3), given as fraction): 4.24% | inhibition at 2 µM ([6]; Homo sapiens, PC-9, read-out: Inhibitory efficacy, PC-9, 2uM, single repeats (Repeat 1-3), given as fraction): 12.8% | inhibition at 4 µM ([6]; Homo sapiens, PC-9, read-out: Inhibitory efficacy, PC-9, 4uM, single repeats (Repeat 1-3), given as fraction): 40% | inhibition at 8 µM ([6]; Homo sapiens, PC-9, read-out: Inhibitory efficacy, PC-9, 8uM, single repeats (Repeat 1-3), given as fraction): 88.1% | inhibition at 16 µM ([6]; Homo sapiens, PC-9, read-out: Inhibitory efficacy, PC-9, 16uM, single repeats (Repeat 1-3), given as fraction): 85.7% | Inhibitory efficacy ([6]; PC-9, 1uM, 1 µM): 0.05688 and 0.04243 | Inhibitory efficacy ([6]; PC-9, 2uM, 2 µM): 0.1851 and 0.2067 | Inhibitory efficacy ([6]; PC-9, 4uM, 4 µM): 0.4288 and 0.3873 | Inhibitory efficacy ([6]; PC-9, 8uM, 8 µM): 0.8667 and 0.8549 | Inhibitory efficacy ([6]; PC-9, 16uM, 16 µM): 0.8604 and 0.8477 | p-EGFR/EGFR ([7]; H460, 0.1 uM): 0.8093 | p-EGFR/EGFR relative to DMSO ([7]; H460, 0.1 uM): 0.9725 | p-EGFR/EGFR ([7]; H460, 1 uM): 0.8837 | p-EGFR/EGFR relative to DMSO ([7]; H460, 1 uM): 1.062 | p-EGFR/EGFR ([7]; H460, 10 uM): 0.3865 | p-EGFR/EGFR relative to DMSO ([7]; H460, 10 uM): 0.4645 | phosphorylation of EGFR (western blot) ([7]; H460, especially at 10 μM): suppressed
